In ChEMBL document CHEMBL3137667, “[Drug-induced liver injury; fourteenth updated edition of the bibliographic database of liver injuries and related drugs]” (Gastroenterol Clin Biol, 2004):

What was measured:
[1] = human
[2] = human; remark: listed apart in the source
[3] = human; remark: listed apart in the source
[4] = human, serum, 4383 h
[5] = human; remark: listed apart in the source
[6] = human, serum
[7] = human; remark: listed apart in the source
[8] = human; remark: listed apart in the source
[9] = human; remark: listed apart in the source
[10] = Highest frequency of moderate liver toxicity observed during clinical trials, expressed as a percentage. [column '% BIOL' in source]; conditions: human
[11] = human; remark: listed apart in the source
[12] = Highest frequency of acute liver toxicity observed during clinical trials, expressed as a percentage. [column '% AIGUE' in source]; conditions: human
[13] = human; remark: listed apart in the source
[14] = human, serum; remark: listed apart in the source
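Throughout, for Hepatotoxicity (association with vascular disease): count of indexed literature references reporting vascular liver injury in humans, e.g. peliosis hepatitis, hepatic veno-occlusive disease or Budd-Chiari syndrome.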
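Throughout, for Hepatotoxicity (benign tumour): value is a count of indexed literature references citing a benign tumour confirmed by histopathology.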
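Throughout, for Hepatotoxicity (choleostasis): human cholestatic liver injury, shown by histopathology or by peak ALT or AST elevation over alkaline phosphatase ratio below 2, value counts indexed literature reports.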
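Throughout, for Hepatotoxicity (chronic liver disease): chronic liver injury confirmed by histopathology or persistently raised serum aminotransferase activity beyond 6 months, value given as the count of indexed literature references.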
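Throughout, for Hepatotoxicity (cirrhosis): value is a count of indexed literature references reporting cirrhosis confirmed by histopathology.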
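Throughout, for Hepatotoxicity (cytolytic): human cytolytic liver injury, shown by histopathology or by a ratio above 5 of peak ALT or AST elevation to alkaline phosphatase elevation, value counts indexed references.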
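Throughout, for Hepatotoxicity (granulomatous hepatitis): value is a count of indexed literature references reporting granulomatous liver disease confirmed by histopathology.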
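Throughout, for Hepatotoxicity (malignant tumour): malignant tumour confirmed by histopathology, value gives the count of indexed literature references reporting it.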
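Throughout, for Hepatotoxicity (severe hepatitis): human clinical data: severe hepatitis, meaning potentially life-threatening liver failure or clinically observed cases, the value counts how many indexed literature references report it.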
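Throughout, for Hepatotoxicity (steatosis): steatosis confirmed by histopathology, value is the count of indexed references.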

Compound | Hepatotoxicity (choleostasis) [1] | Hepatotoxicity (malignant tumour) [2] | Hepatotoxicity (steatosis) [3] | Hepatotoxicity (chronic liver disease) [4] | Hepatotoxicity (cirrhosis) [5] | Hepatotoxicity (moderate) [6] | Hepatotoxicity (granulomatous hepatitis) [7] | Hepatotoxicity (benign tumour) [8] | Hepatotoxicity (severe hepatitis) [9] | Hepatotoxicity (moderate) [10] | Hepatotoxicity (association with vascular disease) [11] | Hepatotoxicity (acute) [12] | Hepatotoxicity (cytolytic) [13] | Hepatotoxicity (acute) [14] | Hepatotoxicity (severe hepatitis) ([9]; Liver) | Hepatotoxicity (moderate) ([10]; Liver) | Hepatotoxicity (acute) ([12]; Liver) | Hepatotoxicity (choleostasis) ([1]; Liver) | Hepatotoxicity (granulomatous hepatitis) ([7]; Liver) | Hepatotoxicity (cytolytic) ([13]; Liver)
CC1(C)[C@@H](OC(=O)CCC(=O)O)CC[C@]2(C)[C@H]3C(=O)C=C4[C@@H]5C[C@@](C)(C(=O)O)CC[C@]5(C)CC[C@@]4(C)[C@]3(C)CC[C@@H]12 [CARBENOXOLONE] | 0 | 0 | 0 | 0 | 0 | 2 | 0 | 0 | 0 | 0% | 0 | 0% | 0 | 0 | – | – | – | – | – | –
C[C@@H](O)[C@H]1C(=O)N2C(C(=O)[O-])=C(SC3Cn4cnc[n+]4C3)[C@H](C)[C@H]12 (stereo partly drawn) [BIAPENEM] | 0 | 0 | 0 | 0 | 0 | 56 | 0 | 0 | 0 | 40% | 0 | 0% | 0 | 0 | – | – | – | – | – | –
CCOC(=O)C1=C(C)NC(C)=C(C(=O)OC)C1c1cccc(Cl)c1Cl (stereo not drawn) [FELODIPINE] | 0 | 0 | 0 | 0 | 0 | 3 | 0 | 0 | – | – | 0 | – | 0 | 0 | 0 | 20% | 0% | – | – | –
CCCN[C@H]1CCc2nc(N)sc2C1 [PRAMIPEXOLE] | – | 0 | 0 | 0 | 0 | 1 | – | 0 | – | – | 0 | – | – | 0 | 0 | 7.1% | 0% | 0 | 0 | 0
CN[C@@H]1[C@@H](O)[C@@H](O[C@@H]2[C@@H](O)[C@H](O[C@H]3OC(CN)=CC[C@H]3N)[C@@H](N)C[C@H]2N)OC[C@]1(C)O [SISOMICIN] | 0 | 0 | 0 | 0 | 0 | 2 | 0 | 0 | 0 | 5.7% | 0 | 0% | 0 | 0 | – | – | – | – | – | –
CCCN1C[C@H](CSC)C[C@@H]2c3cccc4[nH]cc(c34)C[C@H]21 [PERGOLIDE] | 0 | 0 | 0 | 0 | 0 | 3 | 0 | 0 | 0 | 1.9% | 0 | 0% | 0 | 0 | – | – | – | – | – | –
CC(CN1c2ccccc2Sc2ccccc21)N(C)C (stereo not drawn) [PROMETHAZINE] | 0 | 0 | 0 | 0 | 0 | 0 | 0 | 0 | 0 | 0% | 0 | 0% | 0 | 2 | – | – | – | – | – | –
Cc1nc(C)c2c(n1)N(Cc1ccc(-c3ccccc3-c3nnn[nH]3)cc1)C(=O)CC2 [TASOSARTAN] | 0 | 0 | 0 | 0 | 0 | 2 | 0 | 0 | 0 | 1.9% | 0 | 0% | 0 | 0 | – | – | – | – | – | –
CN1CCCN(C(c2ccccc2)c2ccc(Cl)cc2)CC1 (stereo not drawn) [HOMOCHLORCYCLIZINE] | 1 | 0 | 0 | 0 | 0 | 0 | 0 | 0 | 0 | 0% | 0 | 0% | 1 | 1 | – | – | – | – | – | –
CCc1nc(N)nc(N)c1-c1ccc(Cl)cc1.Nc1ccc(S(=O)(=O)c2ccc(N)cc2)cc1 | 0 | 0 | 0 | 0 | 0 | 1 | 0 | 0 | 0 | 25.3% | 0 | 2.9% | 1 | 3 | – | – | – | – | – | –
CCN1CCN(C(=O)N[C@@H](C(=O)N[C@]2(OC)C(=O)N3C(C(=O)O)=C(CSc4nnnn4C)CS[C@@H]32)[C@H](C)O)C(=O)C1=O [CEFBUPERAZONE] | 0 | 0 | 0 | 0 | 0 | 2 | 0 | 0 | 0 | 6.4% | 0 | 0% | 0 | 0 | – | – | – | – | – | –
CCOC(=O)[C@H](CCc1ccccc1)N[C@@H](C)C(=O)N(CC(=O)O)C1Cc2ccccc2C1 | 0 | 0 | 0 | 0 | 0 | 1 | 0 | 0 | 0 | 1.1% | 0 | 0% | 0 | 0 | – | – | – | – | – | –
